Measured values: US20100010037A1, “1H-PYRROLO[2,3-B]PYRIDINE DERIVATIVES USEFUL AS HSP90 INHIBITORS” (VERNALIS (R&D) LTD., priority 2006, published 2010)

test system: not listed separately; experiment: Growth inhibition assay: cytotoxicity by sulforhodamine B (SRB) assay; assay type: cell-based; details: SRB stain, absorbance at 540 nm; cell line not named
Description: A growth inhibition assay was also employed for the evaluation of candidate HSP90 inhibitors:
Assessment of Cytotoxicity by Sulforhodamine B (SRB) Assay: Calculation of 50% Inhibitory Concentration (IC50).
Day 1 • 1) Determine cell number by haemocytometer. • 2) Using an 8 channel multipipettor, add 160 μl of the cell suspension (3600 cells/well or 2×10^4 cells/ml) to each well of a 96-well microtitre plate. • 3) Incubate overnight at 37° C. in a CO2 incubator. […]
Day 6 • 8) Tip off medium into sink and immerse plate slowly into 10% ice cold trichloroacetic acid (TCA). […] Leave for 15 mins. • 12) Wash off unbound SRB stain with four washes of 1% acetic acid. • 13) Dry plates in incubator. • 14) Solubilise SRB using 100 μl of 10 mM Tris base and put plates on plate shaker for 5 mins. • 15) Determine absorbance at 540 nm using a plate reader. Calculate mean absorbance for quadruplicate wells and express as a percentage of value for control, untreated wells. • 16) Plot % absorbance values versus log drug concentration and determine the IC50.

| SMILES | IC50 [µM] |
| --- | --- |
| COc1cc(-c2cc(Cl)nc3[nH]cc(C#N)c23)c(Cl)cc1Cl [Example 5, 6-Chloro-4-(2,4-dichloro-5-methoxy-phenyl)-1H-pyrrolo[2,3-b]pyridine-3-carbonitrile] | < 50 |

biological target: T1, human full-length HSP90 (Homo sapiens, UniProt P08238); experiment: Fluorescence polarization assay (competitive displacement of fluorescein-labelled probe from HSP90); assay type: binding; details: human full-length HSP90 200 nM, probe 80 nM; read-out: FP IC50 (activity in the fluorescence polarization assay)
T1 construct: E. coli expressed human full-length HSP90 protein; made in house; host or cells: E. coli
T1 sequence (P08238 whole entry): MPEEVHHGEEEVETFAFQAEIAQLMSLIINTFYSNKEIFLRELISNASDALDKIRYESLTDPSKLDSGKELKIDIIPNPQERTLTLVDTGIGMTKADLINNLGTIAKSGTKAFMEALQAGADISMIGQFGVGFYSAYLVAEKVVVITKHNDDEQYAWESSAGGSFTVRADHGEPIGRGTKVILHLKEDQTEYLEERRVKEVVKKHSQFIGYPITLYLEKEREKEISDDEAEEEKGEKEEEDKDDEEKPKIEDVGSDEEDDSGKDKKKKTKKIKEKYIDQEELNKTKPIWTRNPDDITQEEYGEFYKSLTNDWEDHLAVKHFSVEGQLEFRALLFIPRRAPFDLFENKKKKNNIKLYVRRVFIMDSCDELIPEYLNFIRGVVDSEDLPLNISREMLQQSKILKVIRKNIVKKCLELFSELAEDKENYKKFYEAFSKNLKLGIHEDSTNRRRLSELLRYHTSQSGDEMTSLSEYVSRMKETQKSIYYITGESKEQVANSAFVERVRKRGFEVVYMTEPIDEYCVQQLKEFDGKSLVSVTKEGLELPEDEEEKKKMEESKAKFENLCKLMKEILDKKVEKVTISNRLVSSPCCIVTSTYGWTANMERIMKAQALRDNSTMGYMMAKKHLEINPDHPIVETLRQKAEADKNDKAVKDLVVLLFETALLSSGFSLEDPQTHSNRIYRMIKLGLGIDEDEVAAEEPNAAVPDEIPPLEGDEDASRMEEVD
Excerpt: Fluorescence Polarization Assay
Fluorescence polarization {also known as fluorescence anisotropy} measures the rotation of a fluorescing species in solution, where the larger molecule the more polarized the fluorescence emission. When the fluorophore is excited with polarized light, the emitted light is also polarized. The molecular size is proportional to the polarization of the fluorescence emission.
The fluoroscein-labelled probe—
binds to HSP90 {full-length human, full-length yeast or N-terminal domain HSP90} and the anisotropy {rotation of the probe:protein complex} is measured.
Test compound is added to the assay plate, left to equilibrate and the anisotropy measured again. Any change in anisotropy is due to competitive binding of compound to HSP90, thereby releasing probe.
Chemicals are of the highest purity commercially available and all aqueous solutions are made up in AR water. • 1) Costar 96-well black assay plate #3915 • 2) Assay buffer of (a)100 mM Tris pH7.4; (b) 20 mM KCl; (c) 6 mM MgCl2. Stored at room temperature. • 3) BSA (bovine serum albumen) 10 mg/ml (New England Biolabs # B9001S) • 4) 20 mM probe in 100% DMSO stock concentration. Stored in the dark at RT. Working concentration is 200 nM diluted in AR water and stored at 4° C. Final concentration in assay 80 nM. • 5) E. coli expressed human full-length HSP90 protein, purified >95% (see, e.g., Panaretou et al., 1998) and stored in 50 μL aliquots at −80° C.
Protocol • 1) Add 100 μl 1× buffer to wells 11A and 12A (=FP BLNK) • 2) Prepare assay mix—all reagents are kept on ice with a lid on the bucket as the probe is light-sensitive.
• 3) Aliquot 100 μl assay mix to all other wells • 4) Seal plate and leave in dark at room temp for 20 minutes to equilibrate
Compound Dilution Plate—1×3 dilution series • 1) In a clear 96-well v-bottom plate—{# VWR 007/008/257} add 10 μl 100% DMSO to wells B1 to H11 • 2) To wells A1 to A11 add 17.5 μl 100% DMSO • 3) Add 2.5 μl cpd to A1. This gives 2.5 mM {50×} stock cpd—assuming cpds 20 mM. • 4) Repeat for wells A2 to A10. Control in columns 11 and 12. • 5) Transfer 5 μl from row A to row B—not column 12. Mix well. • 6) Transfer 5 μl from row B to row C. […] In column 11 {provides standard curve} only add compound B11-H11. Add 2 μl of 100 mM standard cpd to wells B12-H12 {is positive control} • 13) The Z′ factor is calculated from zero controls and positive wells. It typically gives a value of 0.7-0.9.

| SMILES | IC50 [µM] |
| --- | --- |
| COc1cc(-c2ccnc3[nH]cc(C#N)c23)c(Cl)cc1Cl [Example 4, 4-(2,4-Dichloro-5-methoxy-phenyl)-1H-pyrrolo[2,3-b]pyridine-3-carbonitrile] | < 1 |
| Cc1ccc(-c2ccnc3[nH]cc(Br)c23)c(C)c1 [Example 6] | 1 to 10 |
| Cc1ccc(-c2ccnc3[nH]cc(C=O)c23)c(C)c1 [Example 7, 4-(2,4-Dimethyl-phenyl)-1H-pyrrolo[2,3-b]pyridine-3-carbaldehyde] | < 1 |
| CCN(CC)CCOc1cc(-c2ccccc2)c2c(C#N)c[nH]c2n1 [Example 9, 6-(2-Diethylamino-ethoxy)-4-phenyl-1H-pyrrolo[2,3-b]pyridine-3-carbonitrile] | > 10 |
| CCN(CC)CCOc1cc(-c2ccc(Cl)cc2Cl)c2c(C#N)c[nH]c2n1 [Example 10, 4-(2,4-Dichloro-phenyl)-6-(2-diethylamino-ethoxy)-1H-pyrrolo[2,3-b]pyridine-3-carbonitrile] | 1 to 10 |
| N#Cc1c[nH]c2nc(OCCCN3CCCCC3)cc(-c3ccc(Cl)cc3Cl)c12 [Example 11, 4-(2,4-Dichloro-phenyl)-6-(3-piperidin-1-yl-propoxy)-1H-pyrrolo[2,3-b]pyridine-3-carbonitrile] | 1 to 10 |
| CCN(CC)CCOc1cccc(-c2ccnc3[nH]cc(C#N)c23)c1 [Example 13, 4-[3-(2-Diethylamino-ethoxy)-phenyl]-1H-pyrrolo[2,3-b]pyridine-3-carbonitrile] | 1 to 10 |

Second part, the molecule after the results:

| IC50 [µM] | SMILES |
| --- | --- |
| < 1 | Cc1ccc(-c2ccnc3[nH]cc(C#N)c23)c(C)c1 [Example 1, 4-(2,4-Dimethyl-phenyl)-1H-pyrrolo[2,3-b]pyridine-3-carbonitrile] |
| < 1 | N#Cc1c[nH]c2nccc(-c3ccc(Cl)cc3Cl)c12 [Example 2, 4-(2,4-Dichloro-phenyl)-1H-pyrrolo[2,3-b]pyridine-3-carbonitrile] |
| < 1 | N#Cc1c[nH]c2nc(Cl)cc(-c3ccc(Cl)cc3Cl)c12 [Example 3, 6-Chloro-4-(2,4-dichloro-phenyl)-1H-pyrrolo[2,3-b]pyridine-3-carbonitrile] |
| < 1 | COc1cc(-c2cc(Cl)nc3[nH]cc(C#N)c23)c(Cl)cc1Cl [Example 5, 6-Chloro-4-(2,4-dichloro-5-methoxy-phenyl)-1H-pyrrolo[2,3-b]pyridine-3-carbonitrile] |
| 1 to 10 | N#Cc1c[nH]c2nccc(-c3cccc(O)c3)c12 [Example 12, 4-(3-Hydroxy-phenyl)-1H-pyrrolo[2,3-b]pyridine-3-carbonitrile] |
| < 1 | N#Cc1c[nH]c2nc(Cl)cc(-c3cccc(O)c3)c12 [Example 14, 6-Chloro-4-(3-hydroxy-phenyl)-1H-pyrrolo[2,3-b]pyridine-3-carbonitrile] |
| < 1 | COc1cc(-c2ccccc2)c2c(C#N)c[nH]c2n1 [Example 15, 6-methoxy-4-(-phenyl)-1H-pyrrolo[2,3-b]pyridine-3-carbonitrile] |
